Test results: PubChem BioAssay AID248 (DTP/NCI, 2004)
Toxic doses and inconclusive results are not listed. No stated cut-off is given here; in the data, active means T/C of 150% or more; inactive means T/C below 125%.

Tested on: L1210 leukemia ip in BDF1 mice, survival T/C
Assay: NCI In Vivo Anticancer Drug Screen. Data for tumor model L1210 Leukemia (intraperitoneal) in B6D2F1 (BDF1) mice
Conditions: endpoint: mean survival time, higher = longer survival
Outline: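 Antitumor effect is assessed in tumor-bearing animals. Survival in the compound arm is compared with a vehicle-dosed control arm and expressed as their quotient.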

[1] = dose: 100.0 mg/kg/injection, schedule: Q04DX003 (ip), vehicle: Klucel (hydroxypropylcellulose) (HPC)
[2] = dose: 200.0 mg/kg/injection, schedule: Q04DX003 (ip), vehicle: Klucel (hydroxypropylcellulose) (HPC)
[3] = dose: 400.0 mg/kg/injection, schedule: Q04DX003 (ip), vehicle: Klucel (hydroxypropylcellulose) (HPC)
[4] = dose: 100.0 mg/kg/injection, schedule: Q01DX009 (ip), vehicle: Klucel (hydroxypropylcellulose) (HPC)
[5] = dose: 200.0 mg/kg/injection, schedule: Q01DX009 (ip), vehicle: Klucel (hydroxypropylcellulose) (HPC)
[6] = dose: 100.0 mg/kg/injection, schedule: Q01DX001 (ip), vehicle: saline
[7] = dose: 200.0 mg/kg/injection, schedule: Q01DX001 (ip), vehicle: saline
[8] = dose: 200.0 mg/kg/injection, schedule: Q01DX001 (ip), vehicle: Klucel (hydroxypropylcellulose) (HPC)
[9] = dose: 400.0 mg/kg/injection, schedule: Q01DX001 (ip), vehicle: Klucel (hydroxypropylcellulose) (HPC)
[10] = dose: 100.0 mg/kg/injection, schedule: Q01DX009 (ip), vehicle: saline with Tween-80
[11] = dose: 200.0 mg/kg/injection, schedule: Q01DX009 (ip), vehicle: saline with Tween-80

Measured: T/C

CCCCNC(C)C(=O)c1ccccc1 (stereo unspecified)
inactive: dose: 12.5 mg/kg/injection, schedule: Q04DX003 (ip), vehicle: saline 100 % of control | dose: 25.0 mg/kg/injection, schedule: Q01DX009 (ip), vehicle: saline 101 % of control | dose: 25.0 mg/kg/injection, schedule: Q04DX003 (ip), vehicle: saline 90 % of control | dose: 50.0 mg/kg/injection, schedule: Q01DX009 (ip), vehicle: saline 101 % of control | dose: 50.0 mg/kg/injection, schedule: Q04DX003 (ip), vehicle: saline 100 % of control | dose: 100.0 mg/kg/injection, schedule: Q04DX003 (ip), vehicle: saline 94 % of control

COC1=CC2C3=C(C(NC=O)CCc4cc(OC)c(OC)c(OC)c43)C2C1=O (stereo unspecified)
inactive: [1] 95 % of control | [2] 100 % of control | [3] 102 % of control

CCN=C(c1ccc(NC(=O)c2ccc(C(=O)Nc3ccc(C(=NCC)N(CC)C(=O)OCC)cc3)cc2)cc1)N(CC)C(=O)OCC
inactive: dose: 2.0 mg/kg/injection, schedule: Q01DX015 (ip), vehicle: methylcellulose (MC) 101 % of control | dose: 4.0 mg/kg/injection, schedule: Q01DX015 (ip), vehicle: methylcellulose (MC) 104 % of control | dose: 8.0 mg/kg/injection, schedule: Q01DX015 (ip), vehicle: methylcellulose (MC) 97 % of control | dose: 16.0 mg/kg/injection, schedule: Q01DX015 (ip), vehicle: methylcellulose (MC) 100 % of control | dose: 31.0 mg/kg/injection, schedule: Q01DX015 (ip), vehicle: methylcellulose (MC) 102 % of control | dose: 62.0 mg/kg/injection, schedule: Q01DX015 (ip), vehicle: methylcellulose (MC) 98 % of control | dose: 125.0 mg/kg/injection, schedule: Q01DX015 (ip), vehicle: methylcellulose (MC) 96 % of control | dose: 250.0 mg/kg/injection, schedule: Q01DX015 (ip), vehicle: methylcellulose (MC) 95 % of control | dose: 375.0 mg/kg/injection, schedule: Q01DX015 (ip), vehicle: methylcellulose (MC) 91 % of control | dose: 500.0 mg/kg/injection, schedule: Q01DX015 (ip), vehicle: methylcellulose (MC) 101 % of control

O=S1(=O)CCCC(c2ccccc2)=C1c1ccccc1
inactive: dose: 50.0 mg/kg/injection, schedule: Q01DX009 (ip), vehicle: Klucel (hydroxypropylcellulose) (HPC) 102 % of control | [4] 105 % of control | [5] 91 % of control

Oc1c(Cl)c2nc3ccccc3nc2c2ccccc12
inactive: [1] 95 % of control | [2] 97 % of control | [3] 98 % of control

CCOC(=O)CSc1ccc2ccccc2[n+]1-c1ccccc1
inactive: [6] 99 % of control | [7] 94 % of control

COC(=O)C1=CN(C(=O)OC)CCC1
inactive: dose: 100.0 mg/kg/injection, schedule: Q01DX001 (ip), vehicle: Klucel (hydroxypropylcellulose) (HPC) 95 % of control | [8] 88 % of control | [9] 92 % of control

Cc1ccc(S(=O)(=O)OC2COCOC2)cc1
inactive: [10] 110 % of control | [11] 102 % of control | dose: 400.0 mg/kg/injection, schedule: Q01DX009 (ip), vehicle: saline with Tween-80 91 % of control

CC(C)c1ccc(NC(=S)NC(=O)c2ccccc2)cc1
inactive: dose: 100.0 mg/kg/injection, schedule: Q04DX002 (ip), vehicle: gum acacia 103 % of control | dose: 200.0 mg/kg/injection, schedule: Q04DX002 (ip), vehicle: gum acacia 100 % of control | dose: 400.0 mg/kg/injection, schedule: Q04DX002 (ip), vehicle: gum acacia 92 % of control

O=C(/C=C/c1ccccc1)C(Cl)C(Cl)c1ccccc1 (stereo unspecified)
inactive: dose: 50.0 mg/kg/injection, schedule: Q01DX009 (sc), vehicle: olive oil, sesame oil, peanut oil 101 % of control | dose: 100.0 mg/kg/injection, schedule: Q01DX009 (sc), vehicle: olive oil, sesame oil, peanut oil 101 % of control | dose: 200.0 mg/kg/injection, schedule: Q01DX009 (sc), vehicle: olive oil, sesame oil, peanut oil 97 % of control

CCCN(CCC)/N=N/c1nc[nH]c1C(N)=O
inactive: dose: 100.0 mg/kg/injection, schedule: Q01DX001 (ip), vehicle: saline with Tween-80 95 % of control | [10] 97 % of control | dose: 100.0 mg/kg/injection, schedule: Q04DX003 (ip), vehicle: saline with Tween-80 101 % of control | dose: 200.0 mg/kg/injection, schedule: Q01DX001 (ip), vehicle: saline with Tween-80 98 % of control | [11] 106 % of control | dose: 200.0 mg/kg/injection, schedule: Q04DX003 (ip), vehicle: saline with Tween-80 104 % of control | dose: 400.0 mg/kg/injection, schedule: Q01DX001 (ip), vehicle: saline with Tween-80 113 % of control | dose: 400.0 mg/kg/injection, schedule: Q04DX003 (ip), vehicle: saline with Tween-80 112 % of control

CC(C)CC(CC(C)C)OB(OC(CC(C)C)CC(C)C)OC(CC(C)C)CC(C)C
inactive: dose: 50.0 mg/kg/injection, schedule: Q01DX001 (ip), vehicle: other 96 % of control | dose: 100.0 mg/kg/injection, schedule: Q01DX001 (ip), vehicle: other 96 % of control | dose: 200.0 mg/kg/injection, schedule: Q01DX001 (ip), vehicle: other 96 % of control | dose: 400.0 mg/kg/injection, schedule: Q01DX001 (ip), vehicle: other 90 % of control

CCCOC(CCC(=O)NC(C)(C)C)CC(=O)NC(C)(C)C (stereo unspecified)
inactive: [4] 95 % of control | [1] 103 % of control | [5] 90 % of control | [2] 97 % of control | dose: 400.0 mg/kg/injection, schedule: Q01DX009 (ip), vehicle: Klucel (hydroxypropylcellulose) (HPC) 90 % of control | [3] 93 % of control

S=P(NC1CCCCC1)(N1CC1)N1CC1
inactive: dose: 5.0 mg/kg/injection, schedule: Q01DX Z (ip), vehicle: carboxymethylcellulose (CMC) 122 % of control | dose: 20.0 mg/kg/injection, schedule: Q01DX Z (ip), vehicle: carboxymethylcellulose (CMC) 101 % of control

CCCCC(Cl)(CCCC)C(C)Sc1ccc([N+](=O)[O-])cc1 (stereo unspecified)
inactive: dose: 100.0 mg/kg/injection, schedule: Q01DX001 (ip), vehicle: carboxymethylcellulose (CMC) 103 % of control | dose: 200.0 mg/kg/injection, schedule: Q01DX001 (ip), vehicle: carboxymethylcellulose (CMC) 94 % of control | dose: 400.0 mg/kg/injection, schedule: Q01DX001 (ip), vehicle: carboxymethylcellulose (CMC) 100 % of control

Oc1ccc2ccnc(Cc3ccc(Br)cc3)c2c1
inactive: [8] 89 % of control | [9] 89 % of control

CNNCc1ccccc1
inactive: [6] 117 % of control | [7] 115 % of control
